According to BindingDB's records for doi:10.1021/acs.biochem.6b00786 (University of California Irvine, 2016):

Experiments:
[1] = biological target: Nitric oxide synthase oxygenase [E25A,E26A,E316A] (Bacillus subtilis, UniProt O34453, E25A/E26A/E316A); test: bBiDomain assay
Description: (§1) Reactions were carried out using the buffered solution reported for the three-component reaction. The bBiDomain reactions included 100 nm bBiDomain and either YumC or FLDR at 1 μm; except for reactions in which YumC concentrations were varied. For inhibition assays, inhibitors were added at 30 μm. Similar to the three-component reaction, bBiDomain reactions were initiated with NADPH at a final concentration of 400 μm, quenched by thermal denaturation, and analyzed by Griess reaction.

[2] = biological target: Nitric oxide synthase oxygenase [E25A,E26A,I218V,E316A] (Bacillus subtilis, UniProt O34453, E25A/E26A/E316A/I218V); test: bBiDomain assay
Description: as §1

## Cc1cc(N)nc2ccccc12
[1]
  IC50: 36.6 µM
[2]
  IC50: 53.3 µM
